ChEMBL document CHEMBL4118185, “Kakeromamide A, a new cyclic pentapeptide inducing astrocyte differentiation isolated from the marine cyanobacterium Moorea bouillonii” (Bioorg Med Chem Lett, 2018)
pIC50: −log10 of the molar value. The source made the active and inactive calls. The rule behind the calls is not given here.

Key:
HeLa = experiment: Cytotoxicity against human HeLa cells after 72 hrs by MTT assay; type: functional, cell-based
P388 = experiment: Cytotoxicity against mouse P388 cells at 10 uM after 72 hrs by MTT assay; type: functional, cell-based
Mus musculus [1] = organism: Mus musculus; experiment: Induction of differentiation of mouse neuronal stem cells into astrocytes after 72 hrs by Hoechst 33342 staining based immunofluorescence assay; type: functional
Mus musculus [2] = organism: Mus musculus; experiment: Suppression of differentiation of mouse neuronal stem cells into neurons at 2.5 to 10 uM after 72 hrs by NeuO-Hoechst 33342 staining-based microscopic method; type: functional
[3] = Cytotoxicity against mouse neuronal stem cells at 2.5 to 10 after 72 hrs; type: cell-based

CCC[C@H]1NC(=O)c2csc(n2)[C@H](C(C)C)NC(=O)[C@H](Cc2ccc(OC)cc2)N(C)C(=O)[C@H](Cc2ccc(OC)cc2)N(C)C(=O)[C@H](C(C)C)NC(=O)[C@H]1C
pIC50 (HeLa): 5.00
Activity (P388): inactive
Activity (Mus musculus [1]): Dose-dependent effect
Activity (Mus musculus [2]): Active
Activity [3]: Non-Toxic
